Key:
fibronectin = experiment: Fibronectin expression by RT-PCR in NIH3T3 cells; format: cell-based
Procedure: In this example, the aim was to confirm the effect of the peptide according to an example on improving endogenous skin aging, including improvement of wrinkles and enhancement of elasticity, etc., by evaluating the expression levels of collagen type 1 (Col1a1), fibronectin, elastin, and hyaluronic acid, which are known components of the dermis.
Specifically, NIH3T3 cells were seeded in a 6-well plate at a density of 3×10^5 cells/well and cultured for 24 hours. Next, the cells were washed once with serum-free DMEM media, and 10 μM, 50 μM or 1000 μM of a peptide consisting of an amino acid sequence of SEQ ID NO: 1 was dispensed into 1 mL of the serum-free media, and cultured in a CO2 incubator at 37° C. for 24 hours. Next, the culture was washed twice with PBS, and RNA was isolated from the culture using easy blue (iNtRON, Cat. No.: 17061, Korea). Next, using an RT kit (Enzynomics, Cat. NO.: RT200, Korea), the isolated RNA was reverse transcribed to synthesize the respective cDNA. Next, using the synthesized 1 ug cDNA, primers for Colla1, fibronectin, or elastin, and a PCR kit (Enzynomics, Cat. No.: P581T, Korea), polymerase chain reaction (PCR) was performed. Meanwhile, in this example, an untreated group was used as a control group, and a group to which […] was added was used as a positive control group, the nucleotide sequences of the primers used in this example are shown in Table 2 below.
In this example, the aim was to more specifically compare the effects of peptides according to an embodiment on improving intrinsic skin aging. To this end, a peptide consisting of an amino acid sequence of SEQ ID NO: 2, 3, or 4 having a sequence similar to a peptide according to an embodiment was set as a comparison group, and the expression levels of fibronectin and elastin were evaluated and compared in the same manner as in Example 2-1. […]

hyaluronic acid = experiment: Hyaluronic acid level by HA ELISA in HaCaT cells; format: cell-based; conditions: 10 μM, 50 μM or 1000 μM peptide, 72 hours
Procedure: Additionally, to evaluate the expression levels of procollagen I alpha and hyaluronic acid at the protein level, NIH3T3 cells or HaCaT cells were seeded at a density of 1×10^4 cells/well in 24-well plates and then cultured for 24 hours. Next, the cells were washed once with serum-free DMEM media, and 10 μM, 50 μM or 1000 μM of the peptide consisting of the amino acid sequence of SEQ ID NO: 1 was dispensed into 2 mL of the serum-free media, and cultured in a CO2 incubator at 37° C. for 72 hours. Next, the culture was centrifuged to settle the suspended matter, and the supernatant was transferred to an e-tube. Next, Collagen ELISA (abcam, Cat No.: ab210579, UK) and HA ELISA (ECHELON biosciences, Cat No.: K-1200, USA) were performed on the centrifuged culture. Meanwhile, in this example, an untreated group was used as the control group, and a group to which TGF-β1 or EGF was added was used as the positive control group.

For GPRGDP [SEQ ID NO: 1], the expression of fibronectin (fibronectin; 10 μM, 50 μM or 1000 μM peptide, 24 hours, PCR, vs untreated group) was “increased”, the “expression of fibronectin (Example 2-2)” value (fibronectin; comparison experiment, FIG. 5 and FIG. 6) was “increased” and the “fibronectin expression effect compared to the comparison group” value (fibronectin; vs peptides of SEQ ID NO: 2, 3, or 4 (50 μM, 100 μM)) was “superior”. The “expression of hyaluronic acid at the protein level” value (hyaluronic acid) was “increased”.
